Laboratory results from US20180036289A1 (Gilead Sciences, Inc., priority 2016, published 2018).

Test system: cell lines tested
Assay: Cell proliferation assay, summary across all cell lines and drugs
Format: cell-based
Conditions: compared to primary drug alone
Procedure: All cell lines were obtained from the American Type Culture Collection (ATCC) Manassas, Va. (US). Master and working cell banks (MCB and WCB) were prepared by subculturing in ATCC-recommended media and freezing protocols (www.atcc.org). Cell line stocks for the assays were prepared from the WCB. The MCB, WCBs and assay stocks were prepared within respectively 3, 6 and 9 passages of the ATCC vial.
Solid powders of reference compounds were weighed on a calibrated balance and dissolved in 100% DMSO. DMSO samples were stored at room temperature. At the day of the experiment, the compound stock was diluted in 3.16 fold steps in 100% DMSO to obtain a 9-point dilution series. This was further diluted 31.6 times in 20 mM sterile Hepes buffer pH 7.4. A volume of 5 μl was transferred to the cells to generate a test concentration range from 3.16×10^−5M to 3.16×10^−9 M in duplicate. The final DMSO concentration during incubation was […] in all wells.
An assay stock was thawed and diluted in its ATCC recommended medium and dispensed in a 384-well plate, depending on the cell line used, at a concentration of 200-3200 cells per well in 45 μl medium. For each used cell line the optimal cell density is used. The margins of the plate were filled with phosphate-buffered saline. Plated cells were incubated in a humidified atmosphere of 5% CO2 at 37° C. After 24 hours, 5 μl of compound dilution was added and plates were further incubated for another 120 hours. After 120 hours, 25 μl of ATPlite 1Step™ (PerkinElmer) solution was added to each well, and subsequently shaken for 2 minutes. After 10 minutes of incubation in the dark, the luminescence was recorded on an Envision multimode reader (PerkinElmer).
IC50s were calculated by non-linear regression using IDBS XLfit 5. The percentage growth after 120 h (%-growth) was calculated as follows: 100%×(luminescencet=120h/luminescenceuntreated,t=120h). This was fitted to the ^10log compound concentration (conc) by a 4-parameter logistics curve: %−growth=bottom+(top−bottom)/(1+10^(log IC50-conc)*hill)), where hill is the Hill-coefficient, and bottom and top the asymptotic minimum and maximum cell growth that the compound allows in that assay.

Compound: CC(C)c1nc(CN(C)C(=O)N[C@@H](CCN2CCOCC2)C(=O)N[C@H](CC[C@H](Cc2ccccc2)NC(=O)OCc2cncs2)Cc2ccccc2)cs1 [cobicistat]
- increase in sensitivity to the primary drug, maximum (maximum across all experiments): 8.7 fold
- increase in sensitivity to the primary drug, average (on average, across all experiments): 2.9 fold
